Experimental data taken from patent US20160075991A1, “Process for Preparing Starter Cultures of Lactic Acid Bacteria” (INSTITUT NATIONAL DE LA RECHERCHE, priority 1998, published 2016).

Legend:
Format in all cases: cell-based
[1] = test system: Lactococcus lactis subsp. cremoris strain MG1363; test: Culturing in the presence of protoporphyrin IX (Example 1.2); conditions: for Concentration of lactic acid / Final pH / Number of viable cells / OD600 nm: 1% glucose, 24 h
Description: A laboratory medium (M17 supplemented with 1% glucose) is inoculated with the Lacrococcus lactis subsp. cremoris strain MG1363 in the form of a 1/1000 dilution of a saturated culture (prepared at 30° C. with no shaking). The inoculated medium contained or not protoporphyrin IX at a final concentration of 10 μg/ml (a 0.5 mg/ml stock solution is prepared by adding 100 mg of protoporphyin IX to 2 ml of 5N NaOH, to which 198 ml of water is then added; the solution is autoclaved at 120° C. for 20 minutes). For bacteria grown in medium containing protoporphyrin IX, cultures were maintained at 30° C. with shaking (250 rotations per minute) in order to ensure oxygenation, or without shaking as a control. Two other control cultures, without protoporphyin IX or without shaking, were grown at 30° C. in parallel. After 24 h of growth, aliquots are removed to measure the optical density at 600 nm (OD600 nm), the number of viable bacteria, the final pH and the concentration of lactate in the medium.

[2] = test system: Lactococcus lactis subsp. cremoris strain MG1363; test: Survival of the lactic acid bacteria during storage at 4° C. (Example 3); conditions: for Number of cells per ml: porphyrin compound and aeration, 1% glucose M17, storage at 4° C.
Description: A laboratory medium, i.e. M17 supplemented with 1% of glucose, is inoculated with Lactococcus lactis subsp. cremoris strain MG1363 in the form of a 1/1000 dilution of a saturated culture. The cultures are then divided into two equal parts, and hemin is added to one of these two cultures to give a final concentration of 10 μg/ml. […] Aliquots of the two cultures are removed regularly during the exponential growth phase in order to monitor viability, rate of growth and pH. After 24 h of growth, the cultures are placed (stored) in a 30° C. incubator without shaking, and aliquots are removed every 24 h in order to monitor the viability of the cells. The Lactococcus lactis subsp. cremoris strain MG1363 was cultured as in the experiment described in Example 2, but the storage, which is carried out 24 h after inoculation, is at 4° C. instead of at 30° C.

[3] = test system: Lactococcus lactis subsp. cremoris strain MG1363; test: Culturing in the presence of chlorophyllin (Example 1.3); conditions: cultures in the presence of chlorophyllin, not shaken
Description: A laboratory medium (M17 supplemented with 1% glucose) is inoculated with the Lactococcus lactis subsp. cremoris strain MG1363 in the form of a 1/1000 dilution of a saturated culture (prepared at 30° C. with no shaking). The inoculated medium contained or not chlorophyllin (a degradation product of chlorophyll) at a final concentration of 10 μg/ml. In order for it to be active, the chlorophyllin was incubated beforehand in an acidic medium and in the presence of traces of iron in order to replace the Cu atom with an Fe atom. This can, for example, be done as follows: a) by incubating a concentrated solution of chlorophyllin for 24 h in a laboratory medium (M17 supplemented with glucose) which was inoculated with 10^6 lactococci per ml and maintained at 30° C. for 24 h. The supernatant containing the chlorophyllin at a concentration of 100 μg/ml is filtered and then added to the culture medium so as to obtain a final concentration of 10 μg/mi. b) by incubating a concentrated solution of chlorophyllin for 24 h in M17 at a pH of between 3 and 5 (acidified with HCl) and at a temperature of 4° C., 30° C. or 60° C. The pH is then readjusted to 7. […] The pH is then readjusted to 7. […]

[4] = with protoporphyrin IX 10 μg/ml and aeration
[5] = with protoporphyrin IX 10 μg/ml but without aeration

**Q.** With `C=CC1=C(C)c2cc3[nH]c(cc4nc(cc5[nH]c(cc1n2)c(C)c5CCC(=O)O)C(CCC(=O)O)=C4C)c(C)c3C=C` [protoporphyrin IX] as the compound, how does the “production of lactic acid as share of the quantity of sugar added” value ([1]; cells cultured in the presence of protoporphyrin IX and oxygen) read?
**A.** less than 40%

**Q.** What about the “pH of the culture (remains stable)” value ([1]; protoporphyrin IX and oxygen) of the same compound?
**A.** approximately 5.5

**Q.** And the “Concentration of lactic acid” value [1, 4]?
**A.** 1.9 g/L

**Q.** What about the “Final pH” value [1, 4] of the same compound?
**A.** 5.49

**Q.** What about the “Number of viable cells” value [1, 4] of the same compound?
**A.** 6.9 ×10^9

**Q.** And the OD600 nm [1, 4]?
**A.** 4.6

**Q.** And the “Concentration of lactic acid” value [1, 5]?
**A.** 8.2 g/L

**Q.** And the “Final pH” value [1, 5]?
**A.** 4.53

**Q.** What about the “Number of viable cells” value [1, 5] of the same compound?
**A.** 2.7 ×10^9

**Q.** And the OD600 nm [1, 5]?
**A.** 2.5

**Q.** And the survival rate ([2]; after 2 months at 4° C., cultured with porphyrin compound under aeration)?
**A.** ~1%

**Q.** And the “Number of cells per ml” value ([2]; 0 days after culture)?
**A.** 6.4 × 10^9 cells per ml

**Q.** What about the “Number of cells per ml” value ([2]; 1 day after culture) of the same compound?
**A.** 6.2 × 10^9 cells per ml

**Q.** And the “Number of cells per ml” value ([2]; 2 days after culture)?
**A.** 5.6 × 10^9 cells per ml

**Q.** And the “Number of cells per ml” value ([2]; 3 days after culture)?
**A.** 5.4 × 10^9 cells per ml

**Q.** What about the “Number of cells per ml” value ([2]; 7 days after culture) of the same compound?
**A.** 4.0 × 10^9 cells per ml

**Q.** And the “Number of cells per ml” value ([2]; 8 days after culture)?
**A.** 2.8 × 10^9 cells per ml

**Q.** What about the “Number of cells per ml” value ([2]; 9 days after culture) of the same compound?
**A.** 1.9 × 10^9 cells per ml

**Q.** What about the “Number of cells per ml” value ([2]; 10 days after culture) of the same compound?
**A.** 3.9 × 10^8 cells per ml

**Q.** And the “Number of cells per ml” value ([2]; 13 days after culture)?
**A.** 1.7 × 10^8 cells per ml

**Q.** And the “Number of cells per ml” value ([2]; 15 days after culture)?
**A.** 6.0 × 10^7 cells per ml

**Q.** And the “Number of cells per ml” value ([2]; 22 days after culture)?
**A.** 5.9 × 10^7 cells per ml

**Q.** And the “Number of cells per ml” value ([2]; 28 days after culture)?
**A.** 5.4 × 10^7 cells per ml

**Q.** And the “Number of cells per ml” value ([2]; 36 days after culture)?
**A.** 5.4 × 10^7 cells per ml

**Q.** What about the “Number of cells per ml” value ([2]; 43 days after culture) of the same compound?
**A.** 5.3 × 10^7 cells per ml

**Q.** And the “Number of cells per ml” value ([2]; 50 days after culture)?
**A.** 4.8 × 10^7 cells per ml

**Q.** And the “Number of cells per ml” value ([2]; 57 days after culture)?
**A.** 5.3 × 10^7 cells per ml

**Q.** Which “variation of OD600 nm and pH from the control” value [3] does the source give for chlorophyllin here?
**A.** No significant variation from the control
